From ChEMBL document CHEMBL4145445, “Design, synthesis and biological assessment of new thiazolylhydrazine derivatives as selective and reversible hMAO-A inhibitors” (Eur J Med Chem, 2018)
Values belong to the molecule of their own block, whether it stands above or below them.

Columns and labels:
[1] = molecular target: T1, Amine oxidase [flavin-containing] A (Homo sapiens, UniProt P21397); experiment: Inhibition of human MAO-A using tyramine hydrochloride as substrate after 30 mins by Amplex Red reagent based horseradish peroxidase enzyme-coupled fluorescence assay
T1 sequence (P21397 whole entry): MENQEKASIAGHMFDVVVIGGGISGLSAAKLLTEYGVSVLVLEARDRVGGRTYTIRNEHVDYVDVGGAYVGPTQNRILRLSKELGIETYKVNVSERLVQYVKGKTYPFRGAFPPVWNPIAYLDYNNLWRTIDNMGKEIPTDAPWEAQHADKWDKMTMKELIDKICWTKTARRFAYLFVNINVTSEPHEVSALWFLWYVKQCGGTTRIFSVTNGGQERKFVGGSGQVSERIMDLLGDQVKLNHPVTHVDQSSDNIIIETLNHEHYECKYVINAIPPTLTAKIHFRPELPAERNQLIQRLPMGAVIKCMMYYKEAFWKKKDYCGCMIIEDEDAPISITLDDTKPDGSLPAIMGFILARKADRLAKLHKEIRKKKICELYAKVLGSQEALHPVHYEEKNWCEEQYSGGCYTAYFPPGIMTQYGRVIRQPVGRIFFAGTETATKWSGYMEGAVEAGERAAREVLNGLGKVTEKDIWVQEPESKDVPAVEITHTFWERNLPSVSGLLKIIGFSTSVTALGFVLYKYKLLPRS

[2] = molecular target: T1, Amine oxidase [flavin-containing] A; experiment: Inhibition of human MAO-A at 10^-4 to 10^-3 M using tyramine hydrochloride as substrate after 30 mins by Amplex Red reagent based horseradish peroxidase enzyme-coupled fluorescence assay relative to control; conditions: 0.5 h
[3] = molecular target: T2, Amine oxidase [flavin-containing] B (Homo sapiens, UniProt P27338); experiment: Inhibition of human MAO-B at 10^-4 to 10^-3 M using tyramine hydrochloride as substrate after 30 mins by Amplex Red reagent based horseradish peroxidase enzyme-coupled fluorescence assay relative to control; conditions: 0.5 h
T2 sequence (P27338 whole entry): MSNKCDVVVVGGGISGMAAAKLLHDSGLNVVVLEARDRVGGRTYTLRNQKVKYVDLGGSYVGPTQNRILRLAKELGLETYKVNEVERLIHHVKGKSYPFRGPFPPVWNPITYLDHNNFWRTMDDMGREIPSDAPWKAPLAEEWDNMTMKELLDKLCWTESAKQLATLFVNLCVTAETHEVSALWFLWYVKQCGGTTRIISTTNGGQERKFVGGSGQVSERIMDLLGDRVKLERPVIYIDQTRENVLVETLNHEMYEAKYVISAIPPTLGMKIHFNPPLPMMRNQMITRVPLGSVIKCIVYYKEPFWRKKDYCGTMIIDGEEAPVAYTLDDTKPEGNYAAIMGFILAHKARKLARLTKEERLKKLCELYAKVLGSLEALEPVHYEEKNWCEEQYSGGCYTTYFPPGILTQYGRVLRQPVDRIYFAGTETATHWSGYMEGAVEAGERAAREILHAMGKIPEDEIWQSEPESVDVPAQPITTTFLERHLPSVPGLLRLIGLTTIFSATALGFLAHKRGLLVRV

Homo sapiens = species: Homo sapiens; experiment: Selectivity index, ratio of IC50 for human MAO-B to IC50 for human MAO-A
[4] = molecular target: T2, Amine oxidase [flavin-containing] B; experiment: Inhibition of human MAO-B using tyramine hydrochloride as substrate after 30 mins by Amplex Red reagent based horseradish peroxidase enzyme-coupled fluorescence assay
Salmonella typhimurium [5] = experiment: Genotoxicity in Salmonella typhimurium TA98 assessed as increase in revertant colonies at 5 mg/ml in absence of Sprague-Dawley rat liver S9 fraction by Ames test relative to basal level; format: toxicity, organism-based; conditions: salmonella enterica subsp. enterica serovar typhimurium
Salmonella typhimurium [6] = experiment: Genotoxicity in Salmonella typhimurium TA100 assessed as increase in revertant colonies at 0.156 mg/ml in presence of Sprague-Dawley rat liver S9 fraction by Ames test relative to basal level; format: toxicity, organism-based; conditions: salmonella enterica subsp. enterica serovar typhimurium
Salmonella typhimurium [7] = experiment: Genotoxicity in Salmonella typhimurium TA98 assessed as increase in revertant colonies at 5 mg/ml in presence of Sprague-Dawley rat liver S9 fraction by Ames test relative to basal level; format: toxicity, organism-based; conditions: salmonella enterica subsp. enterica serovar typhimurium
Salmonella typhimurium [8] = experiment: Genotoxicity in Salmonella typhimurium TA100 assessed as increase in revertant colonies at 0.156 mg/ml in absence of Sprague-Dawley rat liver S9 fraction by Ames test relative to basal level; format: toxicity, organism-based; conditions: salmonella enterica subsp. enterica serovar typhimurium
Salmonella typhimurium [9] = experiment: Genotoxicity in Salmonella typhimurium TA98 assessed as increase in revertant colonies at 2.5 mg/ml in absence of Sprague-Dawley rat liver S9 fraction by Ames test relative to basal level; format: toxicity, organism-based; conditions: salmonella enterica subsp. enterica serovar typhimurium
Salmonella typhimurium [10] = experiment: Genotoxicity in Salmonella typhimurium TA98 assessed as increase in revertant colonies at 0.156 mg/ml in presence of Sprague-Dawley rat liver S9 fraction by Ames test relative to basal level; format: toxicity, organism-based; conditions: salmonella enterica subsp. enterica serovar typhimurium
Salmonella typhimurium [11] = experiment: Genotoxicity in Salmonella typhimurium TA100 assessed as increase in revertant colonies at 1.25 mg/ml in absence of Sprague-Dawley rat liver S9 fraction by Ames test relative to basal level; format: toxicity, organism-based; conditions: salmonella enterica subsp. enterica serovar typhimurium
Salmonella typhimurium [12] = experiment: Genotoxicity in Salmonella typhimurium TA100 assessed as increase in revertant colonies at 0.625 mg/ml in absence of Sprague-Dawley rat liver S9 fraction by Ames test relative to basal level; format: toxicity, organism-based; conditions: salmonella enterica subsp. enterica serovar typhimurium
Salmonella typhimurium [13] = experiment: Genotoxicity in Salmonella typhimurium TA100 assessed as increase in revertant colonies at 1.25 mg/ml in presence of Sprague-Dawley rat liver S9 fraction by Ames test relative to basal level; format: toxicity, organism-based; conditions: salmonella enterica subsp. enterica serovar typhimurium
NIH3T3 = experiment: Cytotoxicity against mouse NIH/3T3 cells by MTT assay; format: cell-based
Salmonella typhimurium [14] = experiment: Genotoxicity in Salmonella typhimurium TA98 assessed as increase in revertant colonies at 2.5 mg/ml in presence of Sprague-Dawley rat liver S9 fraction by Ames test relative to basal level; format: toxicity, organism-based; conditions: salmonella enterica subsp. enterica serovar typhimurium
Salmonella typhimurium [15] = experiment: Genotoxicity in Salmonella typhimurium TA98 assessed as increase in revertant colonies at 1.25 mg/ml in absence of Sprague-Dawley rat liver S9 fraction by Ames test relative to basal level; format: toxicity, organism-based; conditions: salmonella enterica subsp. enterica serovar typhimurium
Salmonella typhimurium [16] = experiment: Genotoxicity in Salmonella typhimurium TA100 assessed as increase in revertant colonies at 5 mg/ml in absence of Sprague-Dawley rat liver S9 fraction by Ames test relative to basal level; format: toxicity, organism-based; conditions: salmonella enterica subsp. enterica serovar typhimurium
Salmonella typhimurium [17] = experiment: Genotoxicity in Salmonella typhimurium TA100 assessed as increase in revertant colonies at 0.3125 mg/ml in presence of Sprague-Dawley rat liver S9 fraction by Ames test relative to basal level; format: toxicity, organism-based; conditions: salmonella enterica subsp. enterica serovar typhimurium
Salmonella typhimurium [18] = experiment: Genotoxicity in Salmonella typhimurium TA100 assessed as increase in revertant colonies at 2.5 mg/ml in presence of Sprague-Dawley rat liver S9 fraction by Ames test relative to basal level; format: toxicity, organism-based; conditions: salmonella enterica subsp. enterica serovar typhimurium
Salmonella typhimurium [19] = experiment: Genotoxicity in Salmonella typhimurium TA98 assessed as increase in revertant colonies at 0.625 mg/ml in absence of Sprague-Dawley rat liver S9 fraction by Ames test relative to basal level; format: toxicity, organism-based; conditions: salmonella enterica subsp. enterica serovar typhimurium
Salmonella typhimurium [20] = experiment: Genotoxicity in Salmonella typhimurium TA100 assessed as increase in revertant colonies at 2.5 mg/ml in absence of Sprague-Dawley rat liver S9 fraction by Ames test relative to basal level; format: toxicity, organism-based; conditions: salmonella enterica subsp. enterica serovar typhimurium
Salmonella typhimurium [21] = experiment: Genotoxicity in Salmonella typhimurium TA98 assessed as increase in revertant colonies at 0.625 mg/ml in presence of Sprague-Dawley rat liver S9 fraction by Ames test relative to basal level; format: toxicity, organism-based; conditions: salmonella enterica subsp. enterica serovar typhimurium
Salmonella typhimurium [22] = experiment: Genotoxicity in Salmonella typhimurium TA100 assessed as increase in revertant colonies at 0.3125 mg/ml in absence of Sprague-Dawley rat liver S9 fraction by Ames test relative to basal level; format: toxicity, organism-based; conditions: salmonella enterica subsp. enterica serovar typhimurium
Salmonella typhimurium [23] = experiment: Genotoxicity in Salmonella typhimurium TA98 assessed as increase in revertant colonies at 0.3125 mg/ml in presence of Sprague-Dawley rat liver S9 fraction by Ames test relative to basal level; format: toxicity, organism-based; conditions: salmonella enterica subsp. enterica serovar typhimurium
Salmonella typhimurium [24] = experiment: Genotoxicity in Salmonella typhimurium TA98 assessed as increase in revertant colonies at 0.156 mg/ml in absence of Sprague-Dawley rat liver S9 fraction by Ames test relative to basal level; format: toxicity, organism-based; conditions: salmonella enterica subsp. enterica serovar typhimurium
Salmonella typhimurium [25] = experiment: Genotoxicity in Salmonella typhimurium TA100 assessed as increase in revertant colonies at 5 mg/ml in presence of Sprague-Dawley rat liver S9 fraction by Ames test relative to basal level; format: toxicity, organism-based; conditions: salmonella enterica subsp. enterica serovar typhimurium
Salmonella typhimurium [26] = experiment: Genotoxicity in Salmonella typhimurium TA98 assessed as increase in revertant colonies at 0.3125 mg/ml in absence of Sprague-Dawley rat liver S9 fraction by Ames test relative to basal level; format: toxicity, organism-based; conditions: salmonella enterica subsp. enterica serovar typhimurium
Salmonella typhimurium [27] = experiment: Genotoxicity in Salmonella typhimurium TA100 assessed as increase in revertant colonies at 0.625 mg/ml in presence of Sprague-Dawley rat liver S9 fraction by Ames test relative to basal level; format: toxicity, organism-based; conditions: salmonella enterica subsp. enterica serovar typhimurium
[28] = molecular target: T1, Amine oxidase [flavin-containing] A; experiment: Reversible-competitive inhibition of human MAO-A using varying levels of tyramine as substrate after 30 mins by Lineweaver-Burk plot
Salmonella typhimurium [29] = experiment: Genotoxicity in Salmonella typhimurium TA98 assessed as increase in revertant colonies at 1.25 mg/ml in presence of Sprague-Dawley rat liver S9 fraction by Ames test relative to basal level; format: toxicity, organism-based; conditions: salmonella enterica subsp. enterica serovar typhimurium

SMILES: Fc1ccc(-c2csc(N/N=C/c3ccc(N4CCCC4)cc3)n2)cc1
IC50 [1]: 13.1 µM
inhibition (INH) [2]: > 50%
inhibition (INH) [3]: > 50%
Ratio IC50 (Homo sapiens): 32.5
IC50 [4]: 426 µM

SMILES: Fc1ccc(-c2csc(N/N=C/c3ccc(N4CCOCC4)cc3)n2)cc1
fold change (FC) (Salmonella typhimurium [5]): 1.66
IC50 [1]: 0.012 µM
fold change (FC) (Salmonella typhimurium [6]): 1.07
fold change (FC) (Salmonella typhimurium [7]): 5.81
inhibition (INH) [2]: > 50%
fold change (FC) (Salmonella typhimurium [8]): 1.11
fold change (FC) (Salmonella typhimurium [9]): 1.45
fold change (FC) (Salmonella typhimurium [10]): 4.38
fold change (FC) (Salmonella typhimurium [11]): 0.72
fold change (FC) (Salmonella typhimurium [12]): 1.11
inhibition (INH) [3]: > 50%
fold change (FC) (Salmonella typhimurium [13]): 0.96
IC50 (NIH3T3): > 1000 µM
fold change (FC) (Salmonella typhimurium [14]): 7.95
fold change (FC) (Salmonella typhimurium [15]): 2
fold change (FC) (Salmonella typhimurium [16]): 1.17
fold change (FC) (Salmonella typhimurium [17]): 1.01
fold change (FC) (Salmonella typhimurium [18]): 0.96
fold change (FC) (Salmonella typhimurium [19]): 1.59
Ratio IC50 (Homo sapiens): 1210
fold change (FC) (Salmonella typhimurium [20]): 0.83
fold change (FC) (Salmonella typhimurium [21]): 6.97
fold change (FC) (Salmonella typhimurium [22]): 0.56
IC50 [4]: 14.6 µM
fold change (FC) (Salmonella typhimurium [23]): 6.07
fold change (FC) (Salmonella typhimurium [24]): 1.66
fold change (FC) (Salmonella typhimurium [25]): 1.28
fold change (FC) (Salmonella typhimurium [26]): 2.28
fold change (FC) (Salmonella typhimurium [27]): 1.12
Ki [28]: 0.0066 µM
fold change (FC) (Salmonella typhimurium [29]): 7.86

SMILES: Clc1ccc(-c2csc(N/N=C/c3ccc(N4CCOCC4)cc3)n2)c(Cl)c1
IC50 [1]: 85.4 µM
inhibition (INH) [2]: > 50%
inhibition (INH) [3]: > 50%
Ratio IC50 (Homo sapiens): 1.56
IC50 [4]: 133 µM

SMILES: N#Cc1ccc(-c2csc(N/N=C/c3ccc(N4CCCC4)cc3)n2)cc1
IC50 [1]: 66.3 µM
inhibition (INH) [2]: > 50%
inhibition (INH) [3]: > 50%
Ratio IC50 (Homo sapiens): 0.8
IC50 [4]: 53.1 µM

Further molecules by falling IC50 [1], results first:

IC50 [1]: 103 µM
inhibition (INH) [2]: > 50%
inhibition (INH) [3]: > 50%
Ratio IC50 (Homo sapiens): 1.26
IC50 [4]: 131 µM
SMILES: Clc1ccc(-c2csc(N/N=C/c3ccc(N4CCCC4)cc3)n2)c(Cl)c1

IC50 [1]: 61.3 µM
inhibition (INH) [2]: > 50%
Ratio IC50 (Homo sapiens): > 16.3
IC50 [4]: > 1000 µM
SMILES: Brc1ccc(-c2csc(N/N=C/c3ccc(N4CCCC4)cc3)n2)cc1

IC50 [1]: 25.6 µM
inhibition (INH) [2]: > 50%
Ratio IC50 (Homo sapiens): > 39.1
IC50 [4]: > 1000 µM
SMILES: C(=N\Nc1nc(-c2ccccc2)cs1)/c1ccc(N2CCCC2)cc1

IC50 [1]: 20 µM
inhibition (INH) [2]: > 50%
Ratio IC50 (Homo sapiens): > 4.99
IC50 [4]: > 100 µM
SMILES: Cc1ccc(-c2csc(N/N=C/c3ccc(N4CCCC4)cc3)n2)cc1
